In patent US12656356B2, “Pregabalin immunoassays” (ARK Diagnostics, Inc., priority 2015, dated 2026):
Several values for one entry are separate records, joined by “and”; a condition that tells them apart may be missing. Equal values may be shown once.

test system: antibody #10930; test: not given; type: binding, rabbit; settings: not given

Row | SMILES | Reaction Rate (mA/min) Average of Duplicates
1 | CC(C)C[C@H](CN)CC(=O)O [Pregabalin, (S)-3-(aminomethyl)-5-methylhexanoic acid] | 432.5 mA/min and 344.0 mA/min and 381.5 mA/min and 407.0 mA/min

test system: anti-pregabalin antibody; test: Specificity of the homogeneous enzyme immunoassay (cross-reactivity); type: binding, rabbit; settings: compound at 200 μg/mL added to pooled pregabalin-free human urine; Siemens Viva-E System
Text: Antibodies obtained using any of the disclosed techniques are screened or purified not only for their ability to react with pregabalin, but for a low cross-reactivity with potential interfering substances. “Cross-reactivity” may be determined in a quantitative immunoassay by establishing a standard curve using known dilutions of the target analyte, pregabalin. […] The cross-reactivity is the apparent concentration divided by the actual concentration multiplied by 100. […] Furthermore, the cross-reactivity can be determined in the same type of immunoassay in which the antibody will ultimately be used.
An analyzer (instrument) useful to set up the assay is Siemens Viva-E. The Siemens Viva-E® System is an automated biochemistry analyzer used by medical and toxicology laboratories to process biological fluid specimens, such as urine, cerebrospinal fluid, and most commonly, blood. […] The enzyme conjugate activity decreases upon binding to the antibody. The enzyme conjugate, which is not bound to the antibody, catalyzes the oxidation of glucose-6-phosphate. The oxidation of glucose-6-phosphate is coupled with the reduction of NAD^+ to NADH, which can be measured at 340 nm. The change in the absorbance at 340 nm can be measured spectrophotometrically. The pregabalin concentration in a urine specimen can be measured in terms of G6PDH activity. The increase in the rate at 340 nm is due to the formation of NADH and is proportional to the enzyme conjugate activity. An assay curve can be generated using pregabalin spiked into pooled human pregabalin-free urine. The assay rate increases with increasing the concentration of free drug in the sample.
The specificity of the immunoassay was evaluated by adding a compound to pooled pregabalin-free human urine samples fortified with EDTA, and NaN3 preservative and testing the samples and determining the percent cross-reactivity. Separate stock solutions of each compound were prepared in methanol. […] The percentage cross-reactivity was calculated for each compound tested.

Row | SMILES | % Crossreactivity
2 | N[C@@H](Cc1ccccc1)C(=O)O [L-Phenylalanine] | 0.006%
3 | NCC1(CC(=O)O)CCCCC1 [Gabapentin] | 0.019%
4 | CC(C)C[C@H](N)C(=O)O [L-Leucine, L-leucine] | 0.038%
5 | N[C@@H](Cc1ccc(O)cc1)C(=O)O [L-Tyrosine] | 0.004%
6 | NCC(=O)O [L-Glycine] | 0.005%
7 | NCCCC[C@H](N)C(=O)O [L-Lysine] | 0.001%
8 | C[C@@H](O)[C@H](N)C(=O)O [L-Threonine] | 0.005%
9 | CC[C@H](C)[C@H](N)C(=O)O [L-Isoleucine] | 0.008%
10 | CSCC[C@H](N)C(=O)O [L-Methionine] | 0.031%
11 | CC(C)[C@H](N)C(=O)O [L-Valine] | 0.006%
12 | N[C@@H](CCC(=O)O)C(=O)O [L-Glutamic Acid] | 0.006%
13 | N[C@@H](Cc1c[nH]c2ccccc12)C(=O)O [L-Tryptophan] | 0.006%
14 | NC(=O)C[C@H](N)C(=O)O [L-Asparagine] | 0.004%
15 | O=C(O)[C@@H]1CCCN1 [L-Proline] | 0.004%
16 | C[C@H](N)C(=O)O [L-Alanine] | 0.004%
17 | N=C(N)NCCC[C@H](N)C(=O)O [L-Arginine] | 0.006%
18 | N[C@@H](CC(=O)O)C(=O)O [L-Aspartic Acid] | 0.004%
19 | N[C@@H](CS)C(=O)O [L-Cysteine] | 0.005%
20 | N[C@@H](CO)C(=O)O [L-Serine] | 0.005%
21 | NC(=O)CC[C@H](N)C(=O)O [L-Glutamine] | 0.004%
22 | N[C@@H](Cc1c[nH]cn1)C(=O)O [L-Histidine] | 0.007%
